Reference: article PMC7127091 (Bioorganic & Medicinal Chemistry, 2010)

System: human cytomegalovirus (HCMV) strain Davis
Experiment: Anti-HCMV assay in HEL fibroblasts
Format: cell-based
Conditions: HCMV replication in cell culture

Row | Molecule | anti-HCMV activity (in words)
1 | C[C@H](NC(=O)[C@@]1(Cc2ccccc2)CCN1C(=O)OCc1ccccc1)C(=O)NC(C)(C)C [(R,S)-4a, (2R,1’S)-2-Benzyl-1-benzyloxycarbonyl-2-[(1’-tert-butylcarbamoyl)ethyl]carbamoyl-azetidine] | retain the anti-HCMV activity
2 | CC(C)C[C@H](NC(=O)[C@@]1(Cc2ccccc2)CCN1C(=O)OCc1ccccc1)C(N)=O [(R,S)-7d, (2R,1’S)-2-Benzyl-1-benzyloxycarbonyl-2-[(1’-carbamoyl-3’-methyl)butyl]carbamoyl-azetidine] | maintain measurable anti-HCMV activity
3 | C[C@@H](NC(=O)[C@]1(Cc2ccccc2)CCN1C(=O)OCc1ccccc1)C(N)=O [(S,R)-7a, (2S,1’R)-2-Benzyl-1-benzyloxycarbonyl-2-[(1’-carbamoyl)ethyl]carbamoylazetidine] | maintain measurable anti-HCMV activity
4 | C[C@H](NC(=O)[C@]1(Cc2ccccc2)CCN1C(=O)OCc1ccccc1)C(=O)NC(C)(C)C [(S,S)-4a, (2S,1’S)-2-Benzyl-1-benzyloxycarbonyl-2-[(1’-tert-butylcarbamoyl)ethyl]carbamoyl-azetidine] | retain the anti-HCMV activity
5 | CC(C)CNC(=O)[C@H](C)NC(=O)[C@]1(Cc2ccccc2)CCN1C(=O)OCc1ccccc1 [(S,S)-4c, (2S,1’S)-2-Benzyl-1-benzyloxycarbonyl-2-[(1’-isobutylcarbamoyl)ethyl]carbamoyl-azetidine] | retain the anti-HCMV activity
6 | CC(C)[C@H](NC(=O)[C@]1(Cc2ccccc2)CCN1C(=O)OCc1ccccc1)C(N)=O [(S,S)-7c, (2S,1’S)-2-Benzyl-1-benzyloxycarbonyl-2-[(1’-carbamoyl-2’-methyl)propyl]carbamoyl-azetidine] | maintain measurable anti-HCMV activity
7 | C[C@H](NC(=O)[C@]1(Cc2ccccc2)CCN1C(=O)OCC1c2ccccc2-c2ccccc21)C(N)=O [(S,S)-10a, (2S,1’S)-2-Benzyl-2-[(1’-carbamoyl)ethyl]carbamoyl-1-(9-fluorenylmethoxy)carbonyl-azetidine] | inactive against HCMV
8 | C[C@H](NC(=O)[C@]1(Cc2ccccc2)CCN1C(=O)NCc1ccccc1)C(N)=O [(S,S)-10h, (2S,1’S)-2-Benzyl-1-benzylcarbamoyl-2-[(1’-carbamoyl)ethyl]carbamoylazetidine] | inactive
9 | C[C@H](NC(=O)[C@]1(Cc2ccccc2)CCN1C(=O)N[C@@H](C)c1ccccc1)C(N)=O [(S,S)-10i, (2S,1’S,1’’S)-2-Benzyl-2-[(1’’-carbamoyl)ethyl]carbamoyl-1-[(1’-phenyl)ethyl]carbamoyl-azetidine] | inactive
10 | C[C@H](NC(=O)[C@H](Cc1ccccc1)NC(=O)OCc1ccccc1)C(N)=O [compound 11, Z-Phe-Ala-NH2] | unable to inhibit the replication of HCMV
11 | C[C@H](NC(=O)[C@H](Cc1ccccc1)NC(=O)OCc1ccccc1)C(=O)NC(C)(C)C [compound 12, Z-Phe-Ala-NH^tBu] | unable to inhibit the replication of HCMV
12 | (2S,1’S)-2-Benzyl-2-[(1’-carbamoyl)ethyl]carbamoyl-1-phenetylcarbonylazetidine [(S,S)-10g] | inactive

Same assay, conditions: read-out: EC50 HCMV; Davis strain, 100 PFU, HEL fibroblasts, 7 days

Row | Molecule | EC50 [µM]
13 | (2S,1’S)-2-Benzyl-2-[(1’-carbamoyl)ethyl]carbamoyl-1-(4-nitrobenzyloxy)carbonyl-azetidine [(S,S)-10c] | > 20
14 | (2S,1’S)-2-Benzyl-2-[(1’-carbamoyl)ethyl]carbamoyl-1-phenetylcarbonylazetidine [(S,S)-10g] | > 100
